According to patent US8962694B2, “Composition for pest control” (priority 2006, dated 2015):
“And” between values parts separate entries of the source, which are not always exact repeats. Equal values may be shown once.

Experiments:
cane toads [1] = assay: Trial 2 single spray application of test pesticidal compositions; format: in vivo, Bufo marinus
Description: The tests conducted in the second trial involved a single spray application of various test pesticidal compositions on cane toads. A hand-operated spray bottle was used to deliver a single standard dose of 3.0-3.3 gm of the particular test pesticidal agent to the dorsal surface of each animal. Animals were subsequently continuously monitored for their response to the treatment.

cane toads [2] = assay: Trial 1 two-step test: ethanol anaesthesia, then pesticidal agent applied to dorsal surface; format: in vivo, Bufo marinus
Description: Testing of the efficacy of various compositions for the purpose of cane toad extermination was conducted in two trials. The first trial comprised a “two-step” test in which subject toads were initially exposed to an anaesthetic agent and, once anaesthetised, exposed to a pesticidal agent (i.e. killing agent) in the presence of a suitable carrier. This two-step approach was undertaken to ensure the humane extermination of the animals.
Subject animals were therefore exposed to an approximate total dose of 3-4 ml of materials, comprising 2-3 gm of an anaesthetising agent (i.e. ethanol) and up to 1.0 ml of the particular pesticidal agent to be tested. A mist of ethanol was applied (“primary treatment”) to the dorsal surface of the toad from a hand-held spray bottle. When the toad was stupefied, as judged by the inability of the animal to right itself onto its ventral surface when turned onto its back (generally 10-15 minutes after treatment), the test pesticidal agent was administered (“secondary treatment”) onto the animal's dorsal surface by means of a micropipette. The test pesticidal agent included chloroxylenol (i.e. 4-chloro 3,5-dimethyl phenol) in different carriers including ethanol, isopropanol, propanol and dilute solutions thereof. Animals were monitored continuously for their response to the treatment.

cane toads [3] = tested on: cane toads
[4] = large toads (≧140 gm), carrier 40% ethanol with 60% isopropanol, chloroxylenol content 3.75%
[5] = large toads (≧140 gm), carrier 40% ethanol with 60% isopropanol, chloroxylenol content 5.00%
[6] = large toads (≧140 gm), carrier 60% ethanol with 40% isopropanol, chloroxylenol content 5.00%
[7] = large toads (≧140 gm), carrier 70% ethanol with 30% isopropanol, chloroxylenol content 2.00%
[8] = large toads (≧140 gm), carrier 70% ethanol with 30% isopropanol, chloroxylenol content 2.50%
[9] = large toads (≧140 gm), carrier 80% ethanol with 20% isopropanol, chloroxylenol content 2.50%
[10] = large toads (≧140 gm), carrier 80% ethanol with 20% isopropanol, chloroxylenol content 3.75%
[11] = large toads (≧140 gm), carrier 80% ethanol with 20% isopropanol, chloroxylenol content 5.00%
[12] = medium size toads (90.0-139.9 gm), carrier 40% ethanol with 60% isopropanol, chloroxylenol content 3.75%
[13] = medium size toads (90.0-139.9 gm), carrier 40% ethanol with 60% isopropanol, chloroxylenol content 5.00%
[14] = medium size toads (90.0-139.9 gm), carrier 60% ethanol with 40% isopropanol, chloroxylenol content 5.00%
[15] = medium size toads (90.0-139.9 gm), carrier 70% ethanol with 30% isopropanol, chloroxylenol content 2.00%
[16] = medium size toads (90.0-139.9 gm), carrier 70% ethanol with 30% isopropanol, chloroxylenol content 2.50%
[17] = medium size toads (90.0-139.9 gm), carrier 80% ethanol with 20% isopropanol, chloroxylenol content 2.50%
[18] = medium size toads (90.0-139.9 gm), carrier 80% ethanol with 20% isopropanol, chloroxylenol content 3.75%
[19] = medium size toads (90.0-139.9 gm), carrier 80% ethanol with 20% isopropanol, chloroxylenol content 5.00%
[20] = pooled chloroxylenol concentrations and ethanol/propanol carriers (FIGS. 1 and 2)
[21] = small toads (45.0-89.9 gm), carrier 60% ethanol with 40% isopropanol, chloroxylenol content 2.50%
[22] = small toads (45.0-89.9 gm), carrier 60% ethanol with 40% isopropanol, chloroxylenol content 3.75%
[23] = small toads (45.0-89.9 gm), carrier 60% ethanol with 40% isopropanol, chloroxylenol content 5.00%
[24] = small toads (45.0-89.9 gm), carrier 70% ethanol in water, chloroxylenol content 2.50%
[25] = small toads (45.0-89.9 gm), carrier 70% ethanol with 30% isopropanol, chloroxylenol content 2.50%
[26] = small toads (45.0-89.9 gm), carrier 70% ethanol with 30% isopropanol, chloroxylenol content 3.75%
[27] = small toads (45.0-89.9 gm), carrier 70% ethanol with 30% isopropanol, chloroxylenol content 5.00%
[28] = small toads (45.0-89.9 gm), carrier 70% ethanol with 30% methanol, chloroxylenol content 2.50%
[29] = small toads (45.0-89.9 gm), carrier 80% ethanol with 20% isopropanol, chloroxylenol content 2.50%
[30] = small toads (45.0-89.9 gm), carrier 80% ethanol with 20% isopropanol, chloroxylenol content 3.75%
[31] = small toads (45.0-89.9 gm), carrier 80% ethanol with 20% isopropanol, chloroxylenol content 5.00%
[32] = small toads (45.0-89.9 gm), carrier 98% ethanol with 2% citral, chloroxylenol content 2.50%
[33] = small toads (45.0-89.9 gm), carrier 100% ethanol, chloroxylenol content 0.50%, spray 3.0-3.3 gm
[34] = small toads (45.0-89.9 gm), carrier 100% ethanol, chloroxylenol content 2.50%
[35] = small toads (45.0-89.9 gm), carrier 100% ethanol, chloroxylenol content 5.00%
[36] = primary 100% ethanol 2.1-2.9 ml, secondary 5% chloroxylenol in 40% isopropanol/60% water, 1.0 ml, medium toads (90.0-139.9 gm)
[37] = primary 100% ethanol 2.1-2.9 ml, secondary 5% chloroxylenol in 40% isopropanol/60% water, 1.0 ml, small toads (45.0-89.9 gm)
[38] = primary 100% ethanol 2.1-2.9 ml, secondary 30% chloroxylenol in ethanol, 0.2 ml, small toads (45.0-89.9 gm)
[39] = primary 100% ethanol 2.1-2.9 ml, secondary 30% chloroxylenol in ethanol, 0.5 ml, small toads (45.0-89.9 gm)
[40] = primary 100% ethanol 2.1 ml, secondary 15% chloroxylenol in 60% isopropanol/40% water, 1.0 ml, small toads (45.0-89.9 gm)

## Cc1cc(O)cc(C)c1Cl [chloroxylenol, 4-chloro 3,5-dimethyl phenol]
Cane toads [1]; 2.5% chloroxylenol, from fitted line of FIG. 2
  predicted time to kill toads of up to 200 gm weight: less than 60 minutes
Cane toads [1]; compositions with 2.5% or more chloroxylenol
  large toads killed/treated: 31/32
Cane toads [1]; compositions with 2.5% or more chloroxylenol, all toads treated (33)
  medium-sized toads killed: 33
Cane toads [1]; [4]
  mean time to death: 52 min
  number died/number tested: 5/5
Cane toads [1]; [5]
  mean time to death: 47 min
  number died/number tested: 4/4
Cane toads [1]; [6]
  mean time to death: 39 min
  number died/number tested: 7/7
Cane toads [1]; large toads (≧140 gm), carrier 70% ethanol with 30% isopropanol, chloroxylenol content 1.25%
  number died/number tested: 0/7;
Cane toads [1]; [7]
  mean time to death: 50 min
  number died/number tested: 7/7
Cane toads [1]; [8]
  mean time to death: 60 min
  number died/number tested: 7/7
Cane toads [1]; [9]
  mean time to death: 91 min
  number died/number tested: 1/1
Cane toads [1]; [10]
  mean time to death: 34 min
  number died/number tested: 3/4
Cane toads [1]; [11]
  mean time to death: 53 min
  number died/number tested: 4/4
Cane toads [1]; [12]
  mean time to death: 48 min
  number died/number tested: 4/4
Cane toads [1]; [13]
  mean time to death: 46 min
  number died/number tested: 4/4
Cane toads [1]; [14]
  mean time to death: 28 min
  number died/number tested: 7/7
Cane toads [1]; [15]
  mean time to death: 65 min
  number died/number tested: 5/5
Cane toads [1]; [16]
  mean time to death: 39 min
  number died/number tested: 5/5
Cane toads [1]; [17]
  mean time to death: 37 min
  number died/number tested: 5/5
Cane toads [1]; [18]
  mean time to death: 31 min
  number died/number tested: 4/4
Cane toads [1]; [19]
  mean time to death: 52 min
  number died/number tested: 4/4
Cane toads [1]; of 93 in total, three chloroxylenol concentrations in four propanol-ethanol carriers
  tests in which a lethal outcome was achieved: 92
Cane toads [1]; [20]
  large toads died within 40 minutes (number): 12/32
  large toads died within 40 minutes (percent): 37%
  large toads died within 60 minutes (number): 23/32
  large toads died within 60 minutes (percent): 72%
  medium toads died within 40 minutes (number): 25/33
  medium toads died within 40 minutes (percent): 75%
  medium toads died within 60 minutes (number): 30/33
  medium toads died within 60 minutes (percent): 91%
  small toads killed in <30 minutes (number): 22/28
  small toads killed in <30 minutes (percent): 78%
  time to death, all medium sized toads: ≤ 102 min
  time to death, large toads, all but one: ≤ 120 min
Cane toads [1]; pooled: 2.5%, 3.75%, 5% chloroxylenol in four ethanol/propanol carriers (FIGS. 1 and 2)
  time to death, all small toads: ≤ 40 min
Cane toads [1]; [21]
  mean time to death: 27 min
  number died/number tested: 3/3
Cane toads [1]; [22]
  mean time to death: 19 min
  number died/number tested: 3/3
Cane toads [1]; [23]
  mean time to death: 21 min
  number died/number tested: 5/5
Cane toads [1]; [24]
  mean time to death: 46 min
  number died/number tested: 3/3
Cane toads [1]; [25]
  mean time to death: 26 min
  number died/number tested: 3/3
Cane toads [1]; [26]
  mean time to death: 26 min
  number died/number tested: 3/3
Cane toads [1]; [27]
  mean time to death: 22 min
  number died/number tested: 3/3
Cane toads [1]; [28]
  mean time to death: 38 min
  number died/number tested: 3/3
Cane toads [1]; [29]
  mean time to death: 25 min
  number died/number tested: 2/2
Cane toads [1]; [30]
  mean time to death: 22 min
  number died/number tested: 4/4
Cane toads [1]; [31]
  mean time to death: 16 min
  number died/number tested: 2/2
Cane toads [1]; [32]
  mean time to death: 25 min
  number died/number tested: all three toads tested were killed and 3/3
Cane toads [1]; [33]
  mean time to death: 62 min
  number died/number tested: one third and 1/3
Cane toads [1]; [34]
  mean time to death: 28 min
  number died/number tested: 3/3
Cane toads [1]; [35]
  mean time to death: 22 min
  number died/number tested: 3/3
Cane toads [1]; small toads, ethanol as sole carrier or mixtures of ethanol and propanol, at least 2.5% chloroxylenol
  mean times to death: less than 30 minutes
Cane toads [2]; chloroxylenol in carriers (ethanol alone or dilutions of propanol), all toads treated (12)
  ethanol-anaesthetised toads exterminated: 12
Cane toads [2]; [36]
  mean time to death: 28 min
  number died/number tested: 1/1
Cane toads [2]; [37]
  mean time to death: 30 min
  number died/number tested: 5/5
Cane toads [2]; [38]
  mean time to death: 71 min
  number died/number tested: 2/2
Cane toads [2]; [39]
  mean time to death: 64 min
  number died/number tested: 2/2
Cane toads [2]; [40]
  mean time to death: 24 min
  number died/number tested: 2/2
Cane toads [2]; two-step tests of Example 1
  onset of death: 16 to 102 min

## CCO [ethanol]
Cane toads [3]; toads of all sizes
  anaesthetic effect of topical application: rapid- and long-acting anaesthetic
Cane toads [3]; very small toads = less than about 45 gm
  lethality of ethanol alone: death only in some (but not all) very small toads
Cane toads [2]; mist of ethanol on dorsal surface, 2-3 gm
  lag period before onset of anaesthesia (toad stupefied, unable to right itself): 10 to 15 min
